Results on 21 compounds are retold here after patent publication US12331040B2 (Karyopharm Therapeutics Inc., priority 2013, dated 2025).

Where two headings read alike, the source gives them in different places. Bounds are passed on as bounds.

Common to all, as to experiment: MTT cell proliferation assay
Type in all cases: cell-based

The subject of one test is 3T3 cells. To be noted: Mus musculus, NIH3T3, approximately 64-72 hours incubation. In a few lines:
(§1)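 5,000-10,000 cells/well, overnight attach; 8 conc., 1 nM–30 μM; MTT ~4 h; formazan solubilized, OD 490 nm; % inhibition = (1−(ODo/OD))×100 vs neg. control; mostly duplicate, mean±SE.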

Another test has as its system MS751 cells. The conditions noted are these: Homo sapiens, MS751, MS751 cells, approximately 64-72 hours incubation. In a few lines:
as §1

The test system of a further test is Z138 cells. The conditions noted are these: Homo sapiens, Z-138, Z138 cells, approximately 64-72 hours incubation. In a few lines:
as §1

[1] abbreviates: read-out: MTT Assay IC50 MS-751.
The mark [2] stands for this setting: read-out: MTT Assay IC50, MS-751.
Setting [3] is: read-out: MTT Assay IC50, Z-138.

Consider `Nc1ccc(/C=C/C(=O)NCc2cc3cc(-c4ccc(C(=O)N5CCC(O)(C(F)(F)F)C5)cc4)cc(C(F)(F)F)c3o2)cn1` (stereo not drawn) [Compound 606, (E)-3-(6-aminopyridin-3-yl)-N-((5-(4-(3-hydroxy-3-(trifluoromethyl)pyrrolidine-1-carbonyl)phenyl)-7-(trifluoromethyl)benzofuran-2-yl)methyl)acrylamide], for which the IC50 is greater than 10 µM in the test with 3T3 cells (read-out: MTT Assay IC50 3T3), 0.1 to 5 µM in the test with MS751 cells (setting [1]) and 0.1 to 5 µM with Z138 cells (read-out: MTT Assay IC50 Z-138).

Turning to `CC1(C)CN(C(=O)c2ccc(-c3cc(C(F)(F)F)c4oc(CNC(=O)/C=C/c5ccc(N)nc5)cc4c3)cc2)CCO1` [Compound 530, (E)-3-(6-aminopyridin-3-yl)-N-((5-(4-(2,2-dimethylmorpholine-4-carbonyl)phenyl)-7-(trifluoromethyl)benzofuran-2-yl)methyl)acrylamide], the IC50 in the test with 3T3 cells (read-out: MTT Assay IC50 3T3) was greater than 10 µM; in the test on MS751 cells (setting [1]), 0.1 to 5 µM; in the test with Z138 cells (read-out: MTT Assay IC50 Z-138), 0.1 to 5 µM.

As for `Nc1ccc(/C=C/C(=O)NCc2cc3cc(-c4ccc(CC(=O)N5CCOCC5)cc4)cc(Cl)c3o2)cn1` [Compound 553, (E)-3-(6-Aminopyridin-3-yl)-N-((7-chloro-5-(4-(2-morpholino-2-oxoethyl)phenyl)benzofuran-2-yl)methyl)acrylamide], the IC50 was greater than 10 µM with 3T3 cells (read-out: MTT Assay IC50 3T3), 0.1 to 5 µM with MS751 cells (setting [1]) and 0.1 to 5 µM with Z138 cells (read-out: MTT Assay IC50 Z-138).

As to `Nc1ccc(/C=C/C(=O)NCc2cc3cc(-c4ccc(C(=O)N5CCOCC5)cn4)cc(-c4ccc(F)cc4)c3o2)cn1` [Compound 568, (E)-3-(6-aminopyridin-3-yl)-N-((7-(4-fluorophenyl)-5-(5-(morpholine-4-carbonyl)pyridin-2-yl)benzofuran-2-yl)methyl)acrylamide], the half-inhibitory concentration (IC50) in the test with 3T3 cells (read-out: MTT Assay IC50 3T3) was 0.1 to 5 µM; with MS751 cells (setting [1]) it was less than 0.1 µM; in the test on Z138 cells (read-out: MTT Assay IC50 Z-138), less than 0.1 µM.

As to `COc1cc(-c2ncc(C(=O)N3CCOCC3)cn2)cc2cc(CNC(=O)/C=C/c3ccc(N)nc3)oc12` [Compound 638, (E)-3-(6-aminopyridin-3-yl)-N-((7-methoxy-5-(5-(morpholine-4-carbonyl)pyrimidin-2-yl)benzofuran-2-yl)methyl)acrylamide], the values for the half-inhibitory concentration (IC50) with 3T3 cells (read-out: MTT Assay IC50 3T3), in the test with MS751 cells (setting [1]) and in the test on Z138 cells (read-out: MTT Assay IC50 Z-138) were greater than 10 µM, 0.1 to 5 µM and less than 0.1 µM, respectively.

Consider `COc1ccc(-c2ccc(S(=O)(=O)N3CCOCC3)cc2)c2cc(CNC(=O)/C=C/c3ccc(N)nc3)oc12` [Compound 554, (E)-3-(6-aminopyridin-3-yl)-N-((7-methoxy-4-(4-(morpholinosulfonyl)phenyl)benzofuran-2-yl)methyl)acrylamide], for which the IC50 in the test with 3T3 cells (read-out: MTT Assay IC50 3T3) was greater than 10 µM; in the test with MS751 cells (setting [1]) it was 0.1 to 5 µM; with Z138 cells (read-out: MTT Assay IC50 Z-138), less than 0.1 µM.

For `Nc1ccc(/C=C/C(=O)NCc2cc3cc(-c4ccc(C(=O)N5CCC(F)(F)CC5)cc4)cc(-c4ccc(Cl)cc4F)c3o2)cn1` [Compound 739, (E)-3-(6-aminopyridin-3-yl)-N-((7-(4-chloro-2-fluorophenyl)-5-(4-(4,4-difluoropiperidine-1-carbonyl)phenyl)benzofuran-2-yl)methyl)acrylamide], the IC50 is greater than 10 µM in the test with 3T3 cells (read-out: MTT Assay IC50, 3T3); 0.1 to 5 µM in the test on MS751 cells (setting [2]); 0.1 to 5 µM in the test with Z138 cells (setting [3]).

On to `Nc1ccc(/C=C/C(=O)NCc2cc3cc(-c4ccc(C(=O)N5CC(F)(F)C5)cc4)cc(C(F)(F)F)c3o2)cn1` [Compound 520, (E)-3-(6-aminopyridin-3-yl)-N-((5-(4-(3,3-difluoroazetidine-1-carbonyl)phenyl)-7-(trifluoromethyl)benzofuran-2-yl)methyl)acrylamide], for which the IC50 in the test with 3T3 cells (read-out: MTT Assay IC50 3T3) is greater than 10 µM; with MS751 cells (setting [1]), 0.1 to 5 µM; in the test with Z138 cells (read-out: MTT Assay IC50 Z-138), 0.1 to 5 µM.

For the compound `Nc1ccc(/C=C/C(=O)NCc2cc3cc(-c4ccc(S(=O)(=O)N5CC(F)(F)C5)cc4)cc(Cl)c3o2)cn1` [Compound 642, (E)-3-(6-aminopyridin-3-yl)-N-((7-chloro-5-(4-(3,3-difluoroazetidin-1-ylsulfonyl)phenyl)benzofuran-2-yl)methyl)acrylamide], the IC50 in the test on 3T3 cells (read-out: MTT Assay IC50 3T3) was greater than 10 µM; with MS751 cells (setting [1]), 0.1 to 5 µM; in the test with Z138 cells (read-out: MTT Assay IC50 Z-138) it was 0.1 to 5 µM.

For `O=C(/C=C/c1cccnc1)NCc1cc2cc(-c3ccc(C(=O)N4CC5(COC5)C4)cn3)cc(C(F)(F)F)c2o1` [Compound 689, (E)-N-((5-(5-(2-oxa-6-azaspiro[3.3]heptane-6-carbonyl)pyridin-2-yl)-7-(trifluoromethyl)benzofuran-2-yl)methyl)-3-(pyridin-3-yl)acrylamide], the IC50 with 3T3 cells (read-out: MTT Assay IC50, 3T3) was 0.1 to 5 µM; in the test on MS751 cells (setting [2]), less than 0.1 µM; in the test on Z138 cells (setting [3]) it was less than 0.1 µM.

Turning to `Nc1ccc(/C=C/C(=O)NCc2cc3cc(-c4ccc(C(=O)N5CC(F)C5)cc4)cc(C(F)(F)F)c3o2)cn1` [Compound 524, (E)-3-(6-aminopyridin-3-yl)-N-((5-(4-(3-fluoroazetidine-1-carbonyl)phenyl)-7-(trifluoromethyl)benzofuran-2-yl)methyl)acrylamide], the IC50 in the test with 3T3 cells (read-out: MTT Assay IC50 3T3) is greater than 10 µM; in the test on MS751 cells (setting [1]), 0.1 to 5 µM; in the test on Z138 cells (read-out: MTT Assay IC50 Z-138), 0.1 to 5 µM.

As for `Nc1ccc(/C=C/C(=O)NCc2cc3cc(-c4ccc(F)c(S(=O)(=O)N5CCOCC5)c4)cc(Cl)c3o2)cn1` [Compound 636, (E)-3-(6-aminopyridin-3-yl)-N-((7-chloro-5-(4-fluoro-3-(morpholinosulfonyl)phenyl)benzofuran-2-yl)methyl)acrylamide], the IC50 is greater than 10 µM in the test on 3T3 cells (read-out: MTT Assay IC50 3T3), 0.1 to 5 µM in the test on MS751 cells (setting [1]) and 0.1 to 5 µM in the test with Z138 cells (read-out: MTT Assay IC50 Z-138).

With `Nc1ccc(/C=C/C(=O)NCc2cc3cc(-c4ccc(C(=O)N5CCC(C(F)(F)F)CC5)cn4)cc(C(F)(F)F)c3o2)cn1` [Compound 615, (E)-3-(6-aminopyridin-3-yl)-N-((7-(trifluoromethyl)-5-(5-(4-(trifluoromethyl)piperidine-1-carbonyl)pyridin-2-yl)benzofuran-2-yl)methyl)acrylamide], the IC50 in the test on 3T3 cells (read-out: MTT Assay IC50 3T3) was greater than 10 µM; with MS751 cells (setting [1]), 0.1 to 5 µM; with Z138 cells (read-out: MTT Assay IC50 Z-138), 0.1 to 5 µM.

As for `Nc1ccc(/C=C/C(=O)NCc2cc3cc(-c4ccc(C(=O)N5CCC(F)(F)CC5)cc4)cc(-c4cccnc4)c3o2)cn1` [Compound 724, (E)-3-(6-aminopyridin-3-yl)-N-((5-(4-(4,4-difluoropiperidine-1-carbonyl)phenyl)-7-(pyridin-3-yl)benzofuran-2-yl)methyl)acrylamide], the IC50 in the test with 3T3 cells (read-out: MTT Assay IC50, 3T3) is 0.1 to 5 µM; in the test with MS751 cells (setting [2]) it was less than 0.1 µM; in the test on Z138 cells (setting [3]) it was less than 0.1 µM.

With `Nc1ccc(/C=C/C(=O)NCc2cc3cc(-c4ccc(C(=O)N5CC(F)(F)C5)cc4)cc(Cl)c3o2)cn1` [Compound 508, (E)-3-(6-aminopyridin-3-yl)-N-((7-chloro-5-(4-(3,3-difluoroazetidine-1-carbonyl)phenyl)benzofuran-2-yl)methyl)acrylamide], the figures for the IC50 in the test on 3T3 cells (read-out: MTT Assay IC50 3T3), in the test with MS751 cells (setting [1]) and with Z138 cells (read-out: MTT Assay IC50 Z-138) were greater than 10 µM, 0.1 to 5 µM and 0.1 to 5 µM, respectively.

For `COc1cc(-c2ccc(C(=O)N3CCC(F)(F)CC3)cn2)cc2cc(CNC(=O)/C=C/c3ccc(N)nc3)oc12` [Compound 651, (E)-3-(6-aminopyridin-3-yl)-N-((5-(5-(4,4-difluoropiperidine-1-carbonyl)pyridin-2-yl)-7-methoxybenzofuran-2-yl)methyl)acrylamide], the IC50 was greater than 10 µM with 3T3 cells (read-out: MTT Assay IC50 3T3), less than 0.1 µM in the test with MS751 cells (setting [1]) and less than 0.1 µM in the test on Z138 cells (read-out: MTT Assay IC50 Z-138).

Regarding `Nc1ccc(/C=C/C(=O)NCc2cc3cc(-c4ccc(C(=O)N5CCNCC5)cn4)cc(C(F)(F)F)c3o2)cn1` [Compound 577, (E)-3-(6-aminopyridin-3-yl)-N-((5-(5-(piperazine-1-carbonyl)pyridin-2-yl)-7-(trifluoromethyl)benzofuran-2-yl)methyl)acrylamide], the IC50 in the test with 3T3 cells (read-out: MTT Assay IC50 3T3) is greater than 10 µM; with MS751 cells (setting [1]), less than 0.1 µM; in the test with Z138 cells (read-out: MTT Assay IC50 Z-138), less than 0.1 µM.

On to `Nc1ccc(/C=C/C(=O)NCc2cc3cc(-c4ccc(Oc5ccc(F)nc5)cc4)cc(-c4ccc(F)cc4)c3o2)cn1` [Compound 767, (E)-3-(6-aminopyridin-3-yl)-N-((7-(4-fluorophenyl)-5-(4-((6-fluoropyridin-3-yl)oxy)phenyl)benzofuran-2-yl)methyl)acrylamide], for which the IC50 in the test with 3T3 cells (read-out: MTT Assay IC50, 3T3) was greater than 10 µM; with MS751 cells (setting [2]) it was 0.1 to 5 µM; in the test with Z138 cells (setting [3]) it was less than 0.1 µM.

On to `Nc1cc2ccc(/C=C/C(=O)NCc3cc4cc(-c5ccc(C(=O)N6CCC(F)(F)CC6)cn5)cc(C(F)(F)F)c4o3)cc2cn1` [Compound 670, (E)-3-(3-aminoisoquinolin-7-yl)-N-((5-(5-(4,4-difluoropiperidine-1-carbonyl)pyridin-2-yl)-7-(trifluoromethyl)benzofuran-2-yl)methyl)acrylamide], for which the concentration for half-maximal inhibition (IC50) in the test on 3T3 cells (read-out: MTT Assay IC50, 3T3) is greater than 10 µM; in the test with MS751 cells (setting [2]), greater than 10 µM; with Z138 cells (setting [3]), greater than 10 µM.

Take `Nc1ccc(/C=C/C(=O)NCc2cc3cc(-c4ccc(C(=O)N5CC6CCC(C5)O6)cn4)cc(C(F)(F)F)c3o2)cn1` [Compound 632, (E)-N-((5-(5-(8-oxa-3-azabicyclo[3.2.1]octane-3-carbonyl)pyridin-2-yl)-7-(trifluoromethyl)benzofuran-2-yl)methyl)-3-(6-aminopyridin-3-yl)acrylamide]: the IC50 was greater than 10 µM in the test with 3T3 cells (read-out: MTT Assay IC50 3T3), 0.1 to 5 µM with MS751 cells (setting [1]) and 0.1 to 5 µM with Z138 cells (read-out: MTT Assay IC50 Z-138).

On to `Nc1ccc(/C=C/C(=O)NCc2cc3cc(-c4ccc(C(=O)N5CC(F)(F)C5)cn4)cc(C(F)(F)F)c3o2)cn1` [Compound 645, (E)-3-(6-aminopyridin-3-yl)-N-((5-(5-(3,3-difluoroazetidine-1-carbonyl)pyridin-2-yl)-7-(trifluoromethyl)benzofuran-2-yl)methyl)acrylamide], for which the IC50 in the test with 3T3 cells (read-out: MTT Assay IC50 3T3) is greater than 10 µM; with MS751 cells (setting [1]), 0.1 to 5 µM; in the test on Z138 cells (read-out: MTT Assay IC50 Z-138) it was less than 0.1 µM.
